Laboratory results taken from patent US10239890B2, “Broad spectrum beta-lactamase inhibitors” (Gladius Pharmaceuticals Corporation, priority 2007, dated 2019).

Tests used:
[1] = target: T1, beta-lactamase from Enterobacter cloacae (Enterobacter cloacae, UniProt P05364); experiment: Time dependent inhibition of beta-lactamase, with dialysis to test for return of activity; type: biochemical; details: 10 mL 0.1 units/mL beta-lactamase with and without 500 microM inhibitor, dialysed against 1 L 0.1 M sodium phosphate buffer (pH 7.0) with one exchange
T1 construct: purchased Sigma-Aldrich, St. Louis, Mo

[2] = target: T1, beta-lactamase from Enterobacter cloacae; experiment: Assay (I) for beta-lactamase activity (Cefesone hydrolysis, absorbance at 486 nm), product inhibition; type: biochemical; details: Cefesone substrate
Protocol: A chromogenic cephalosporin, Cefesone, is synthesized and isolated as described by Sutton et al. and used to monitor p-lactamase activity. A typical assay monitors the hydrolysis of Cefesone via the formation of a species which absorbs at 486 nm (molar absorptivity constant 16,000). Absorption is monitored as a function of time in 0.1 M, pH 7.0 sodium phosphate, 0.2 mM Cefesone and 4 volume percent DMSO cosolvent at 30° C. using a Beckman DU-40 spectrophotometer having a circulating water bath attached to the cuvette holder. The assay is initiated by addition and mixing of an appropriate amount of beta-lactamase.
The beta-lactamase assay using enzyme fro Enterobacter cloacae (Sigma-Aldrich, St. Louis, Mo.) was carried out as in Example 1 (assay I) above with compound 2. After the initial rate was determined the reaction was allowed to continue for two hours. Theoretical maximal absorbance at 486 nm is approximately 1.6 while the observed final absorbance was consistently 0.26.
where E is enzyme, S is substrate, P is product, ES is the enzyme-substrate complex, EP is the enzyme product complex, and k1, k−1, k2, and k−2 are rate constants and kcat is the catalytic rate constant. In the case of product inhibition k−2 is large with respect to k2, so as enzyme product accumulates, more enzyme is tied up in the enzyme-product complex and is unavailable for catalysis.

T1 sequence (P05364 21-381): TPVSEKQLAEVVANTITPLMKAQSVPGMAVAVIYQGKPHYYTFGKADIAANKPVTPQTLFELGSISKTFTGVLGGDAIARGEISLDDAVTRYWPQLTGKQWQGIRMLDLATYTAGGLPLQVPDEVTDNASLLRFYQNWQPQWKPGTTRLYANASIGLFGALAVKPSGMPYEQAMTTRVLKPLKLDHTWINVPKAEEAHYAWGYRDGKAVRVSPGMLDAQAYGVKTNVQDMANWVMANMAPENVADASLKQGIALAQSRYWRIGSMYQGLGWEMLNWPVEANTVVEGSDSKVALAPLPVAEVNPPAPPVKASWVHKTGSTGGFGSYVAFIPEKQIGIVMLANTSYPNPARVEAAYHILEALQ

return of beta-lactamase activity after dialysis [1]	observed final absorbance at 486 nm ([2]; reaction continued for two hours after the initial rate, theoretical maximal absorbance approximately 1.6)	type of inhibition inferred from final absorbance ([2]; reaction continued for two hours)	SMILES
no return of activity	0.26	consistent with product inhibition	O=C(Cc1ccccc1)NC1C(=O)N2C(C(=O)O)=C(/C=C/C3CC3)CSC12 (stereo not shown) [compound 2, 3-vinylcyclopropane-7-(2-phenylacetamido)-3-Cephem-4-carboxylic acid]
no return of activity	–	–	O=C(Cc1ccccc1)NC1C(=O)N2C(C(=O)O)=C(/C=C/c3ccc(CBr)cc3)CSC12 (stereo not shown) [compound 4, 3-(1-bromomethyl-4-vinylbenzene)-7-(2-phenylacetamido)-3-Cephem-4-carboxylic acid]
